Data as given in ChEMBL document CHEMBL3525973, “Quantitative prediction of human intestinal glucuronidation effects on intestinal availability of UDP-glucuronosyltransferase substrates using in vitro data” (Drug Metab Dispos, 2012).

Legend:
[1] = in vitro; settings: human, blood and plasma
Description: Ratio of drug level in blood to plasma in human

[2] = Unbound fraction during UGT-mediated glucuronidation in human intestinal microsomes
[3] = Unbound intrinsic clearance in human intestinal microsomes assessed UGT-mediated glucuronidation clearance
[4] = Apparent permeability by PAMPA method
[5] = Intrinsic clearance in human intestinal microsomes assessed UGT-mediated glucuronidation clearance
[6] = biological target: T1, UDP-glucuronosyltransferase 1A1 (Homo sapiens, UniProt P22309); test: Activity of human UGT1A1 expressed in insect cells assessed as reduction in compound level after 30 mins; assay type: ADME; settings: 0.5 h
T1 sequence (P22309 whole entry): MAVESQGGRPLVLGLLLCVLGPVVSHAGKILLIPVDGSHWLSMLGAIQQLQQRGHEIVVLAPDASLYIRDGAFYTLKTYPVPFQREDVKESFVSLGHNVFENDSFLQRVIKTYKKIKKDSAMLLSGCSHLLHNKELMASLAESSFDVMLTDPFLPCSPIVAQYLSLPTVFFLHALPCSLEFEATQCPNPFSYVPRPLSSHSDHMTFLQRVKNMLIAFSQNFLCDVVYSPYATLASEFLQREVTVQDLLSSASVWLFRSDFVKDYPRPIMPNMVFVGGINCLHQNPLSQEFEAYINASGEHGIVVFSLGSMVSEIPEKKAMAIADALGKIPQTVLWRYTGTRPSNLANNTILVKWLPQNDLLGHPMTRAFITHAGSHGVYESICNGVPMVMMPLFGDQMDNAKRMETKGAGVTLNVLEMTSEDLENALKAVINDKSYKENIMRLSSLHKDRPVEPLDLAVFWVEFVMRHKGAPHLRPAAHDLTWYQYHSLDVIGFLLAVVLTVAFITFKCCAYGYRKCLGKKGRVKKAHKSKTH

[7] = Oral bioavailability in human; assay type: ADME, organism-based; settings: in vivo
[8] = biological target: T2, UDP-glucuronosyltransferase 1A8 (Homo sapiens, UniProt Q9HAW9); test: Activity of human UGT1A8 expressed in insect cells assessed as reduction in compound level after 30 mins; assay type: ADME; settings: 0.5 h
T2 sequence (Q9HAW9 whole entry): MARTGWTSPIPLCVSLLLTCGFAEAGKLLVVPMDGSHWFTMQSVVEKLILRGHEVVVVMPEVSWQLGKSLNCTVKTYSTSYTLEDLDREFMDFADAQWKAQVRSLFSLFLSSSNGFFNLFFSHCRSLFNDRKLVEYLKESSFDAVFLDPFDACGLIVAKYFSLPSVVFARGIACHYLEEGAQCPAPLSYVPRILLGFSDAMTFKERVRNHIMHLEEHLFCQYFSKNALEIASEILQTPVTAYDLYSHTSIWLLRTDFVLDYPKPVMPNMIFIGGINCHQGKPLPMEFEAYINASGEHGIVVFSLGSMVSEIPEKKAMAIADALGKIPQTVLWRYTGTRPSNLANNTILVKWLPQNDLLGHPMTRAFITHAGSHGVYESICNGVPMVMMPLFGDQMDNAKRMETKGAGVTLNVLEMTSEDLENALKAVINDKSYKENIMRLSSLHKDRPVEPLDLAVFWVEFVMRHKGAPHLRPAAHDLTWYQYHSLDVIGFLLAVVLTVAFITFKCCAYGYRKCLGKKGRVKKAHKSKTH

[9] = biological target: T3, UDP-glucuronosyltransferase 1A10 (Homo sapiens, UniProt Q9HAW8); test: Activity of human UGT1A10 expressed in insect cells assessed as reduction in compound level after 30 mins; assay type: ADME; settings: 0.5 h
T3 sequence (Q9HAW8 whole entry): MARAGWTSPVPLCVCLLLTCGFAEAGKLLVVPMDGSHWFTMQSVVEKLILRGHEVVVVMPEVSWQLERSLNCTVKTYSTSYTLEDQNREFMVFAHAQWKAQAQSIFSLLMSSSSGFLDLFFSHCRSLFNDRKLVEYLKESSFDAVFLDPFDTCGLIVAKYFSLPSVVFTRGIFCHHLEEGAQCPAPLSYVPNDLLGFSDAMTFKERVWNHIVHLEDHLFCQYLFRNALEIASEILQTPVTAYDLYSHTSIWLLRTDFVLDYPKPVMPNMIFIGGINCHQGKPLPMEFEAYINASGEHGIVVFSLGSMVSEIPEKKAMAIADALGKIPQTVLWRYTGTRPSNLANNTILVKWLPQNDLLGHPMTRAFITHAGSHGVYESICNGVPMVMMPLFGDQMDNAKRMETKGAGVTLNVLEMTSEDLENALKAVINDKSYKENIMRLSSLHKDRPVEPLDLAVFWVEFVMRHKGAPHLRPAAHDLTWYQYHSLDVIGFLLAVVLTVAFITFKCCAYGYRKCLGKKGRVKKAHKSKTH

[10] = Intrinsic clearance in human intestinal microsomes assessed CYP450-mediated glucuronidation clearance
[11] = biological target: T4, UDP-glucuronosyltransferase 2B7 (Homo sapiens, UniProt P16662); test: Activity of human UGT2B7 expressed in insect cells assessed as reduction in compound level after 30 mins; assay type: ADME; settings: 0.5 h
T4 sequence (P16662 whole entry): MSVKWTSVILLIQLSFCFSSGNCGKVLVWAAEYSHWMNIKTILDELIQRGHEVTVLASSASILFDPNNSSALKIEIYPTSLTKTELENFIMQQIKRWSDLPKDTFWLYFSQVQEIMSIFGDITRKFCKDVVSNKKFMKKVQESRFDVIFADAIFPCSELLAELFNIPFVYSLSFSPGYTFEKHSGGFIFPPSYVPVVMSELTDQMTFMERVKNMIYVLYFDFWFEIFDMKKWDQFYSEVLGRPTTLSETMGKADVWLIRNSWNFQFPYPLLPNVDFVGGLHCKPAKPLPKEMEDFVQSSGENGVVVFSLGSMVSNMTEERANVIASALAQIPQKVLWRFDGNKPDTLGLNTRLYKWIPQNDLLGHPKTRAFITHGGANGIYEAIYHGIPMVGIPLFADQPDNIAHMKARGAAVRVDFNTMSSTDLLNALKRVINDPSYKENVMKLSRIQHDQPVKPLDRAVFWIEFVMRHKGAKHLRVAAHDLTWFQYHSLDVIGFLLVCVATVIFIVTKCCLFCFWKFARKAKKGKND

[12] = Unbound intrinsic clearance in human intestinal microsomes assessed CYP450-mediated glucuronidation clearance
[13] = clinical; settings: human, in vivo, po
[14] = biological target: T5, UDP-glucuronosyltransferase 1A9 (Homo sapiens, UniProt O60656); test: Activity of human UGT1A9 expressed in insect cells assessed as reduction in compound level after 30 mins; assay type: ADME; settings: 0.5 h
T5 sequence (O60656 whole entry): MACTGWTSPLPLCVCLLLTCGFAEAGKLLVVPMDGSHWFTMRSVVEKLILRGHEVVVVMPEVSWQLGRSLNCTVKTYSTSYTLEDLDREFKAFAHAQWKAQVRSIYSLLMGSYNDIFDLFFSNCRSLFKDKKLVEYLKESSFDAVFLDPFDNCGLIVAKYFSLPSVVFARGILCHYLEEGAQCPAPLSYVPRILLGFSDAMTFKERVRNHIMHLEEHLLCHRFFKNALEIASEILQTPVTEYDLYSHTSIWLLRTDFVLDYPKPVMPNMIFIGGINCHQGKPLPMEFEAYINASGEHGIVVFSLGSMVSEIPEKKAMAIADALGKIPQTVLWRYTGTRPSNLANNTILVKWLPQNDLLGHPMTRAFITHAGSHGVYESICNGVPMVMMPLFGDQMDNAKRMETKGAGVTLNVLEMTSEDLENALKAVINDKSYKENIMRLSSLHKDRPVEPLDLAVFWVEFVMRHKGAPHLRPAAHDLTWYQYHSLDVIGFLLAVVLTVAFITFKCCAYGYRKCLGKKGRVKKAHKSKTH

[15] = clinical; settings: human, in vivo
[16] = clinical; settings: human, in vivo; remark: listed apart in the source
[17] = Drug absorption in po dosed human; assay type: ADME, organism-based; settings: in vivo, read-out: Drug absorption
[18] = biological target: T6, UDP-glucuronosyltransferase 1A3 (Homo sapiens, UniProt P35503); test: Activity of human UGT1A3 expressed in insect cells assessed as reduction in compound level after 30 mins; assay type: ADME; settings: 0.5 h
T6 sequence (P35503 whole entry): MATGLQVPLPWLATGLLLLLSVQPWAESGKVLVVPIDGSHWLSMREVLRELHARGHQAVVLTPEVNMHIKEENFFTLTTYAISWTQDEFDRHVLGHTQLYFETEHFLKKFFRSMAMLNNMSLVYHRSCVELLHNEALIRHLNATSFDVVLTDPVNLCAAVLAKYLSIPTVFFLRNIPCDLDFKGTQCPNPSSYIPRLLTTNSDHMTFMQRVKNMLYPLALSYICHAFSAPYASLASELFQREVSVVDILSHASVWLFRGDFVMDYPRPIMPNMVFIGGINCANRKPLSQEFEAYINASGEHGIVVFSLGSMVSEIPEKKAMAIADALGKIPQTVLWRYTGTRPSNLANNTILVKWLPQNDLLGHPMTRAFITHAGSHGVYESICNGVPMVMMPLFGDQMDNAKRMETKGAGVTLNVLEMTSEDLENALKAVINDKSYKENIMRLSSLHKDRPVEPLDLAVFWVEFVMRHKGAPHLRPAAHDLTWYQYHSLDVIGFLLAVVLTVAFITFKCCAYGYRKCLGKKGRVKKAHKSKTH

[19] = Unbound fraction during CYP4500-mediated metabolism in human intestinal microsomes

CCCc1nc2c(C)cc(-c3nc4ccccc4n3C)cc2n1Cc1ccc(-c2ccccc2C(=O)O)cc1
blood plasma ratio [1]: 0.67
fraction unbound ([2]; microsomes): 0.92
CL free [3]: 21.7 µL/min/mg
Papp [4]: > 30 ×10⁻⁶ cm/s
microsomal CLint ([5]; intestinal microsomes): 20 µL/min/mg

Cc1c(-c2ccc(O)cc2)n(Cc2ccc(OCCN3CCCCCC3)cc2)c2ccc(O)cc12 [BAZEDOXIFENE]
Drug metabolism [6]: metabolite_detected
bioavailability [7]: 6.2%
Drug metabolism [8]: metabolite_detected
Papp [4]: 20 ×10⁻⁶ cm/s
Drug metabolism [9]: metabolite_detected

O=C(O)Cc1ccccc1Nc1c(Cl)cccc1Cl [DICLOFENAC]
CL ([10]; microsomes): metabolite_not_detected
Drug metabolism [11]: metabolite_detected
fraction unbound ([2]; microsomes): 0.94
CL free [12]: metabolite_not_detected
CL free [3]: 62.7 µL/min/mg
microsomal CLint ([5]; microsomes): 59 µL/min/mg

CCN(CC)C(=O)/C(C#N)=C/c1cc(O)c(O)c([N+](=O)[O-])c1 [ENTACAPONE]
blood plasma ratio [1]: 0.59
fraction unbound ([2]; intestinal microsomes): 1
CL free [3]: 27 µL/min/mg
Papp [4]: 4.1 ×10⁻⁶ cm/s
microsomal CLint ([5]; intestinal microsomes): 27 µL/min/mg

CCc1cccc2c3c([nH]c12)C(CC)(CC(=O)O)OCC3 (configuration not stated) [ETODOLAC]
blood plasma ratio [1]: 0.55
CL/F [13]: 0.82 mL/min/kg
bioavailability [7]: 80%
Drug metabolism [14]: metabolite_detected
CL free [3]: 5.7 µL/min/mg
clearance [15]: 0.66 mL/min/kg
Papp [4]: 23 ×10⁻⁶ cm/s
microsomal CLint ([5]; intestinal microsomes): 6.2 µL/min/mg

COc1ccc2c(c1)c(CC(=O)O)c(C)n2C(=O)c1ccc(Cl)cc1 [INDOMETHACIN]
blood plasma ratio [1]: 0.55
CL renal [16]: 0.21 mL/min/kg
fraction unbound ([2]; microsomes): 0.8
Drug metabolism [14]: metabolite_detected
CL free [3]: 5.2 µL/min/mg
clearance [15]: 1.4 mL/min/kg
Papp [4]: 22 ×10⁻⁶ cm/s
microsomal CLint ([5]; intestinal microsomes): 4.2 µL/min/mg

Cc1ncc2n1-c1ccc(Cl)cc1C(c1ccccc1F)=NC2 [MIDAZOLAM]
microsomal CLint ([10]; microsomes): 153 µL/min/mg

O=c1c(O)c(-c2ccc(O)c(O)c2)oc2cc(O)cc(O)c12 [QUERCETIN]
blood plasma ratio [1]: 1
Drug metabolism [6]: metabolite_detected
CL/F [13]: 8330 mL/min/kg
fraction unbound ([2]; intestinal microsomes): 0.9
Fa [17]: 65%
CL free [3]: 5133 µL/min/mg
Drug metabolism [18]: metabolite_detected
Papp [4]: < 1.5 ×10⁻⁶ cm/s
microsomal CLint ([5]; intestinal microsomes): 4620 µL/min/mg

O=C(c1ccc(OCCN2CCCCC2)cc1)c1c(-c2ccc(O)cc2)sc2cc(O)ccc12 [RALOXIFENE]
fraction unbound [19]: 0.43
Drug metabolism [8]: metabolite_detected
microsomal CLint ([10]; intestinal microsomes): 8.9 µL/min/mg
fraction unbound ([2]; intestinal microsomes): 0.98
CL free [12]: 20.7 µL/min/mg
CL free [3]: 2224 µL/min/mg
Papp [4]: 3 ×10⁻⁶ cm/s
Drug metabolism [9]: metabolite_detected
CL ([5]; microsomes): 2180 µL/min/mg

Cc1ccc(C(=O)c2cc(O)c(O)c([N+](=O)[O-])c2)cc1 [TOLCAPONE]
blood plasma ratio [1]: 0.61
fraction unbound ([2]; intestinal microsomes): 0.39
Drug metabolism [14]: metabolite_detected
CL free [3]: 103 µL/min/mg
Papp [4]: 18 ×10⁻⁶ cm/s
microsomal CLint ([5]; intestinal microsomes): 40 µL/min/mg
